Results from PMC7305236, “The atypical chemokine receptor ACKR3/CXCR7 is a broad-spectrum scavenger for opioid peptides” (Nature Communications, 2020).
Where two headings read alike, the source gives them in different places.

How the values were obtained:
Experiment in all cases: Figure S2a opioid peptide screen on chemokine receptors
Design in all cases: dose or concentration left out as unconfirmed
CCR8 = CCR8 (Homo sapiens, UniProt P51685); conditions: read-out: CCR8 activity, ctrl+ = 100, Figure S2a
ACKR2 = biological target: T1, ACKR2 (Homo sapiens, UniProt O00590); assay type: cell-based
T1 construct: expressed in transfected cells; host or cells: U87 cells (human glioblastoma)
T1 sequence (O00590 1-384): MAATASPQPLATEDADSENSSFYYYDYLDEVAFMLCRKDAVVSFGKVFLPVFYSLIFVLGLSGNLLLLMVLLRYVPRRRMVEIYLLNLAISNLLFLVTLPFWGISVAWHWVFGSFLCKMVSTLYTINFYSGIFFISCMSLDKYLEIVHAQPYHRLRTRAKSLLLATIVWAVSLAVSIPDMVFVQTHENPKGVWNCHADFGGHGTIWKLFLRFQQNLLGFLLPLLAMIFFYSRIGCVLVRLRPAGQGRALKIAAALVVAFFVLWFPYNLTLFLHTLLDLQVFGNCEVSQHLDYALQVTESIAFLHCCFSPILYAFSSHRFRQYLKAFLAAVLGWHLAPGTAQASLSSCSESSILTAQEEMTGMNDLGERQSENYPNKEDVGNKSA

CCR1 = biological target: T2, CCR1 (Homo sapiens, UniProt P32246); assay type: cell-based
T2 construct: expressed in transfected cells
T2 sequence (P32246 1-355): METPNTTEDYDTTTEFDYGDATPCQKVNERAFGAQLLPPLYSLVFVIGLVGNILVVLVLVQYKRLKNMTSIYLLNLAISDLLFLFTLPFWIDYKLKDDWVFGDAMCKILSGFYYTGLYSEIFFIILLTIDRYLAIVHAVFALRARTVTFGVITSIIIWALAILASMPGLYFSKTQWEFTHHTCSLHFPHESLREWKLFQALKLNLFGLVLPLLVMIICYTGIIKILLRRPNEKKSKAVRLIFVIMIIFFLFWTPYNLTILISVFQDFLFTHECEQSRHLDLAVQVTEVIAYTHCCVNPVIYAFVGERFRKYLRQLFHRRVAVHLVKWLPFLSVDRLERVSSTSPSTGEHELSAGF

CXCR3A = biological target: T3, CXCR3A (Homo sapiens, UniProt P49682); assay type: cell-based
T3 construct: expressed in transfected cells; host or cells: U87 cells
T3 sequence (P49682 1-368): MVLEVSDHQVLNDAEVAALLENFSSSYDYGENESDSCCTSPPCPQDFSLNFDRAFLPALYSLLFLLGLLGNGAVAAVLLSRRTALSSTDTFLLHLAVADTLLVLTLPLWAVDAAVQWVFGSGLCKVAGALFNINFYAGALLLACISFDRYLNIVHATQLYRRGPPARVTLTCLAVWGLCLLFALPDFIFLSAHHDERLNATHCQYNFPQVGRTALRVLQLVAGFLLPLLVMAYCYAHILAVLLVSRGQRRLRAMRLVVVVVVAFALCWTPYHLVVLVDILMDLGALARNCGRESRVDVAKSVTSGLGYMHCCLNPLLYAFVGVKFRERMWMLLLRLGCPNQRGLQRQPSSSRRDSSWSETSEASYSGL

CXCR6 = biological target: T4, CXCR6 (Homo sapiens, UniProt O00574); assay type: cell-based
T4 construct: expressed in transfected cells

ACKR4 = biological target: T5, ACKR4 (Homo sapiens, UniProt Q9NPB9); conditions: read-out: ACKR4 activity, ctrl+ = 100, Figure S2a
T5 sequence (Q9NPB9 1-350): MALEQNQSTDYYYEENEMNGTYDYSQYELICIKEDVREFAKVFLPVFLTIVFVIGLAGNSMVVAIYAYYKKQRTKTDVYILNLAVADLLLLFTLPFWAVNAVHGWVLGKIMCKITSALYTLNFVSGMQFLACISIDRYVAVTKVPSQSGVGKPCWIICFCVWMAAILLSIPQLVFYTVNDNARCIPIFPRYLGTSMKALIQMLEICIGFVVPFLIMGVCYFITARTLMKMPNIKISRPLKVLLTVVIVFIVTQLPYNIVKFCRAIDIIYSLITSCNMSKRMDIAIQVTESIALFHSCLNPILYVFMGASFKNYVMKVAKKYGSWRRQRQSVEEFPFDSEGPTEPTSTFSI

CCR3 = biological target: T6, CCR3 (Homo sapiens, UniProt P51677); conditions: read-out: CCR3 activity, ctrl+ = 100, Figure S2a
T6 sequence (P51677 1-355): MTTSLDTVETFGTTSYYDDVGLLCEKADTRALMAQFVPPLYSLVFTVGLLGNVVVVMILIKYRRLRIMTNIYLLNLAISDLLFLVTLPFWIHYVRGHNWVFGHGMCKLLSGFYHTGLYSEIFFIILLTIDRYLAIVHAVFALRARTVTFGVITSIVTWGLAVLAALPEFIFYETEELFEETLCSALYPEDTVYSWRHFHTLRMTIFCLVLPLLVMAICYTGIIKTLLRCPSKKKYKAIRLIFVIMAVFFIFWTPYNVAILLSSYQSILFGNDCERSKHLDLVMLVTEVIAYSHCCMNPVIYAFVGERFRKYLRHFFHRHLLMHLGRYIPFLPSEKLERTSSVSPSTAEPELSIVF

[1] = replicate 1, read-out: ACKR2 activity, ctrl+ = 100
[2] = replicate 2, read-out: ACKR2 activity, ctrl+ = 100
[3] = replicate 1, read-out: CCR1 activity, ctrl+ = 100
[4] = replicate 2, read-out: CCR1 activity, ctrl+ = 100
[5] = replicate 1, read-out: CXCR3A activity, ctrl+ = 100
[6] = replicate 2, read-out: CXCR3A activity, ctrl+ = 100
[7] = replicate 1, read-out: CXCR6 activity, ctrl+ = 100
[8] = replicate 2, read-out: CXCR6 activity, ctrl+ = 100
[9] = replicate 3, read-out: ACKR2 activity, ctrl+ = 100
[10] = replicate 3, read-out: CCR1 activity, ctrl+ = 100
[11] = replicate 3, read-out: CXCR3A activity, ctrl+ = 100
[12] = replicate 3, read-out: CXCR6 activity, ctrl+ = 100

T4 sequence (O00574 whole entry): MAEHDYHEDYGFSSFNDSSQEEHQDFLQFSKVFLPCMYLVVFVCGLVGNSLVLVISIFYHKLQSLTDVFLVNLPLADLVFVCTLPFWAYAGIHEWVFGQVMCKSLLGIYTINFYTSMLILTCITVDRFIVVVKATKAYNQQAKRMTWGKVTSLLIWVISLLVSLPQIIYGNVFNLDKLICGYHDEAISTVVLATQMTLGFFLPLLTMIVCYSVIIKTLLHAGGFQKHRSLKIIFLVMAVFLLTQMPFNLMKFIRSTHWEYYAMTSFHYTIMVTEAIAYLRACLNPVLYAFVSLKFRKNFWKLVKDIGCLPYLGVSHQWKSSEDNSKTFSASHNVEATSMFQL
Sequence of CCR8 (P51685 whole entry): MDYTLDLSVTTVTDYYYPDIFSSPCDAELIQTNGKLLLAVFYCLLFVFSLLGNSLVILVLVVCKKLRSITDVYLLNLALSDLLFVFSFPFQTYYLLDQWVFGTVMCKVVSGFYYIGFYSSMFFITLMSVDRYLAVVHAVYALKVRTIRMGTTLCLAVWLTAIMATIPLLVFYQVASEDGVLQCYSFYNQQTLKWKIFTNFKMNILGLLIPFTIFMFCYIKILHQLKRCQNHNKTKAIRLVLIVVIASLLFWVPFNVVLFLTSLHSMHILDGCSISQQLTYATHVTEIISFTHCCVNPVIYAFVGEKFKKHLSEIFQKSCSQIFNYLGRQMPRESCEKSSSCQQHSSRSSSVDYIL

SMILES | activation (CCR8; replicate 2) | activation (ACKR2; [1]) | activation (ACKR2; [2]) | activation (CCR1; [3]) | activation (CCR1; [4]) | activation (CXCR3A; [5]) | activation (CXCR3A; [6]) | activation (CXCR6; [7]) | activation (CXCR6; [8]) | activation (ACKR4; replicate 1) | activation (ACKR4; replicate 2) | activation (CCR3; replicate 1) | activation (CCR3; replicate 2) | activation (CCR8; replicate 1) | activation (CCR8; replicate 3) | activation (ACKR2; [9]) | activation (CCR1; [10]) | activation (CXCR3A; [11]) | activation (CXCR6; [12]) | activation (ACKR4; replicate 3) | also measured
CC[C@H](C)[C@H](NC(=O)[C@H](CCCNC(=N)N)NC(=O)[C@H](CCCNC(=N)N)NC(=O)[C@H](CC(C)C)NC(=O)[C@H](Cc1ccccc1)NC(=O)CNC(=O)CNC(=O)[C@@H](N)Cc1ccc(O)cc1)C(=O)N[C@@H](CCCNC(=N)N)C(=O)N1CCC[C@H]1C(=O)N[C@@H](CCCCN)C(=O)N[C@@H](CC(C)C)C(=O)N[C@@H](CCCCN)C(=O)O [Dynorphin 1-13] | -19.6% | -0.369% | -39.6% | -29% | -26.2% | -2.15% | -8.16% | 0.0731% | -1.13% | -2% | -4.85% | 5.05% | -11.6% | – | – | – | – | – | – | – | –
CC(C)C[C@H](NC(=O)[C@H](CCCCN)NC(=O)[C@H](CCCN=C(N)N)NC(=O)[C@H](C)NC(=O)[C@H](CO)NC(=O)[C@H](CCCCN)NC(=O)[C@H](CCCN=C(N)N)NC(=O)[C@H](C)NC(=O)CNC(=O)[C@@H](NC(=O)[C@H](Cc1ccccc1)NC(=O)CNC(=O)CNC(=O)[C@@H](N)Cc1ccccc1)[C@@H](C)O)C(=O)N[C@@H](C)C(=O)N[C@@H](CC(N)=O)C(=O)N[C@@H](CCC(N)=O)C(=O)O [Nociceptin] | -5.76% | -19.6% | -66.1% | -16.6% | -34.2% | -2.21% | -5.51% | -0.607% | -0.718% | -1% | -5.23% | 8.85% | -14.3% | 27.1% | – | – | – | – | – | – | –
CSCC[C@H](NC(=O)[C@H](Cc1ccccc1)NC(=O)CNC(=O)CNC(=O)[C@@H](N)Cc1ccc(O)cc1)C(=O)N[C@@H](CCCNC(=N)N)C(=O)N[C@@H](CCCNC(=N)N)C(=O)N[C@H](C(N)=O)C(C)C [Adrenorphin] | -15.7% | -9.62% | -28.7% | -15% | 8.25% | -0.787% | 0.214% | 0.866% | -0.941% | -1.94% | -1.88% | 10.9% | -10.8% | -17.4% | -4% | -0.924% | -9.95% | 3.64% | -0.716% | -0.895% | activation (CCR3; replicate 3): 23.6%
C[C@H](NC(=O)CNC(=O)[C@@H](NC(=O)[C@H](Cc1ccccc1)NC(=O)CNC(=O)CNC(=O)[C@@H](N)Cc1ccccc1)[C@@H](C)O)C(=O)N[C@@H](CCCNC(=N)N)C(=O)N[C@@H](CCCCN)C(=O)N[C@@H](CO)C(=O)N[C@@H](C)C(=O)N[C@@H](CCCNC(=N)N)C(=O)N[C@@H](CCCCN)C(N)=O [Nociceptin 1-13] | -2.22% | -54.6% | -2.02% | -0.621% | 1.74% | -0.431% | -4.46% | -0.349% | -0.882% | -3.36% | -5.01% | 6.49% | 6.25% | -35.6% | 6.11% | 10.5% | -35.9% | -5.38% | 2.41% | 1.05% | activation (CCR3; replicate 3): 14.8%
CC(C)C[C@H](NC(=O)[C@H](Cc1ccccc1)NC(=O)CNC(=O)CNC(=O)[C@@H](N)Cc1ccc(O)cc1)C(=O)N[C@@H](CCCN=C(N)N)C(=O)N[C@@H](CCCN=C(N)N)C(=O)N[C@@H](CCC(N)=O)C(=O)N[C@@H](Cc1ccccc1)C(=O)N[C@@H](CCCCN)C(=O)N[C@H](C(=O)N[C@H](C(=O)N[C@H](C(=O)O)[C@@H](C)O)C(C)C)C(C)C [Dynorphin B] | -25.3% | -36.9% | -27.9% | -23.7% | -13.7% | -2.8% | -4.87% | -1.05% | -1.2% | -5.6% | -0.628% | 22.6% | -7.56% | 2.83% | 18.8% | -3.73% | 27.5% | -1.97% | 0.0809% | 0.166% | –
CC[C@H](C)[C@H](NC(=O)[C@H](CCCNC(=N)N)NC(=O)[C@H](CCCNC(=N)N)NC(=O)[C@H](CC(C)C)NC(=O)[C@H](Cc1ccccc1)NC(=O)CNC(=O)CNC(=O)[C@@H](N)Cc1ccc(O)cc1)C(=O)N[C@@H](CCCNC(=N)N)C(=O)N1CCC[C@H]1C(=O)N[C@@H](CCCCN)C(=O)N[C@@H](CC(C)C)C(=O)N[C@@H](CCCCN)C(=O)N[C@@H](Cc1c[nH]c2ccccc12)C(=O)N[C@@H](CC(=O)O)C(=O)N[C@@H](CC(N)=O)C(=O)N[C@@H](CCC(N)=O)C(=O)O [Dynorphin A] | -35.8% | 15.1% | -26% | -16.7% | 4.28% | -4.75% | -3.36% | -0.0479% | -0.578% | -2.58% | -4.52% | 33.4% | -17% | -0.0612% | -0.797% | 2.73% | 6.56% | 7.92% | 0.283% | 0.188% | activation (CCR3; replicate 3): 43.5%
